Experimental data: PubChem BioAssay AID1845198 (Molecular Pharmacology Branch, DTP, NCI, 2023)
pIC50: −log10 of the molar value.

Tested on: 425362-245-T-J1 tumor spheroids, viability % test/control
Assay: Anticancer human tumor 425362-245-T-J1 patient-derived melanoma cell line growth inhibition
Conditions: spheroids with HUVEC and MSC; for pIC50: curve of first compound; for viability, T/C: stronger effect = lower value; active means viability on the fitted dose curve at most 10% of control; inactive means the rest
How it was run: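 Complex spheroids of malignant cells with endothelial cells and mesenchymal stem cells; agents alone or combined, from near clinical Cmax (or 10 microM if unknown) down in half-log steps, 0.25% DMSO final.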

[1] = second compound 30 pM, first compound 0.0316 µM
[2] = second compound 30 pM, first compound 0.1 µM
[3] = second compound 30 pM, first compound 0.316 µM
[4] = second compound 30 pM, first compound 1 µM
[5] = second compound 30 pM, first compound 3.16 µM
[6] = second compound 30 pM, first compound 10 µM
[7] = second compound 94.9 pM, first compound 0.0316 µM
[8] = second compound 94.9 pM, first compound 0.1 µM
[9] = second compound 94.9 pM, first compound 0.316 µM
[10] = second compound 94.9 pM, first compound 1 µM
[11] = second compound 94.9 pM, first compound 3.16 µM
[12] = second compound 94.9 pM, first compound 10 µM
[13] = second compound 0.0003 µM, first compound 0.0316 µM
[14] = second compound 0.0003 µM, first compound 0.1 µM
[15] = second compound 0.0003 µM, first compound 0.316 µM
[16] = second compound 0.0003 µM, first compound 1 µM
[17] = second compound 0.0003 µM, first compound 3.16 µM
[18] = second compound 0.0003 µM, first compound 10 µM
[19] = second compound 0.000949 µM, first compound 0.0316 µM
[20] = second compound 0.000949 µM, first compound 0.1 µM
[21] = second compound 0.000949 µM, first compound 0.316 µM
[22] = second compound 0.000949 µM, first compound 1 µM
[23] = second compound 0.000949 µM, first compound 3.16 µM
[24] = second compound 0.000949 µM, first compound 10 µM
[25] = second compound 0.003 µM, first compound 0.0316 µM
[26] = second compound 0.003 µM, first compound 0.1 µM
[27] = second compound 0.003 µM, first compound 0.316 µM
[28] = second compound 0.003 µM, first compound 1 µM
[29] = second compound 0.003 µM, first compound 3.16 µM
[30] = second compound 0.003 µM, first compound 10 µM
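Further: spheroids exposed to agents for 7 days.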
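Wherever viability, T/C is given: 100% = DMSO vehicle control viability.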

CC(C)n1c(=O)n(C)c2cnc3cc(F)c(-c4ccc(OCCCN5CCCCC5)nc4)cc3c21 + COc1cc2c(cc1O)CCNC21CSC2c3c(OC(C)=O)c(C)c4c(c3C(COC1=O)N1C(O)C3Cc5cc(C)c(OC)c(O)c5C(C21)N3C)OCO4
inactive: viability, T/C [1] 14.8% | viability, T/C [2] 30.2% | viability, T/C [3] 13.3% | viability, T/C [4] 14.8% | viability, T/C [5] 11.2% | viability, T/C [7] 12%
active: viability, T/C [6] 5.34% | viability, T/C [8] 9.68% | viability, T/C [9] 5.43% | viability, T/C [10] 6.03% | viability, T/C [11] 6.79% | viability, T/C [12] 4.33% | viability, T/C [13] 3.13% | viability, T/C [14] 2.75% | viability, T/C [15] 1.61% | viability, T/C [16] 1.81% | viability, T/C [17] 1.68% | viability, T/C [18] 1.23% | viability, T/C [19] 0.2% | viability, T/C [20] 0.2% | viability, T/C [21] 0.19% | viability, T/C [22] 0.63% | viability, T/C [23] 0.35% | viability, T/C [24] 0.15% | viability, T/C [25] 0.18% | viability, T/C [26] 0.19% | viability, T/C [27] 0.17% | viability, T/C [28] 0.12% | viability, T/C [29] 0.12% | viability, T/C [30] 0.23%
> 7.50: pIC50 (second compound 30 pM) | pIC50 (second compound 94.9 pM) | pIC50 (second compound 0.0003 µM) | pIC50 (second compound 0.000949 µM) | pIC50 (second compound 0.003 µM)

CC1COCCN1c1cc(-c2ccnn2C)c2ccnc(-c3ccn[nH]3)c2n1 (stereo not given) + COc1cc2c(cc1O)CCNC21CSC2c3c(OC(C)=O)c(C)c4c(c3C(COC1=O)N1C(O)C3Cc5cc(C)c(OC)c(O)c5C(C21)N3C)OCO4
> 7.50: pIC50 (second compound 30 pM) | pIC50 (second compound 94.9 pM) | pIC50 (second compound 0.0003 µM) | pIC50 (second compound 0.000949 µM) | pIC50 (second compound 0.003 µM)
active: viability, T/C [2] 7.92% | viability, T/C [3] 5.31% | viability, T/C [4] 5.63% | viability, T/C [5] 6.73% | viability, T/C [6] 7.04% | viability, T/C [8] 5% | viability, T/C [9] 4.08% | viability, T/C [10] 3.64% | viability, T/C [11] 5.29% | viability, T/C [12] 5.35% | viability, T/C [13] 2.05% | viability, T/C [14] 1.46% | viability, T/C [15] 1.47% | viability, T/C [16] 1.57% | viability, T/C [17] 2.68% | viability, T/C [18] 2.88% | viability, T/C [19] 0.27% | viability, T/C [20] 0.17% | viability, T/C [21] 0.15% | viability, T/C [22] 0.08% | viability, T/C [23] 0.09% | viability, T/C [24] 0.58% | viability, T/C [25] 0.58% | viability, T/C [26] 0.6% | viability, T/C [27] 0.55% | viability, T/C [28] 0.47% | viability, T/C [29] 0.47% | viability, T/C [30] 0.86%
inactive: viability, T/C [1] 31.8% | viability, T/C [7] 17.9%

COc1cc(C)[nH]c(=O)c1CN1CCc2c(Cl)cc(C(OC)C3COC3)c(Cl)c2C1=O (stereo not given) + COc1cc2c(cc1O)CCNC21CSC2c3c(OC(C)=O)c(C)c4c(c3C(COC1=O)N1C(O)C3Cc5cc(C)c(OC)c(O)c5C(C21)N3C)OCO4
6.44: pIC50 (second compound 0.0003 µM)
active: viability, T/C [19] 0.53% | viability, T/C [20] 0.46% | viability, T/C [21] 1.6% | viability, T/C [22] 0.35% | viability, T/C [23] 0.31% | viability, T/C [24] 0.31% | viability, T/C [25] 0.35% | viability, T/C [26] 0.38% | viability, T/C [27] 0.36% | viability, T/C [28] 0.31% | viability, T/C [29] 0.29% | viability, T/C [30] 0.35%
> 7.50: pIC50 (second compound 0.000949 µM) | pIC50 (second compound 0.003 µM)
inactive: viability, T/C [1] 104% | viability, T/C [2] 104% | viability, T/C [3] 100% | viability, T/C [4] 99.2% | viability, T/C [5] 86.5% | viability, T/C [6] 92.5% | viability, T/C [7] 98.4% | viability, T/C [8] 93.9% | viability, T/C [9] 98.7% | viability, T/C [10] 95.1% | viability, T/C [11] 87% | viability, T/C [12] 74.2% | viability, T/C [13] 68% | viability, T/C [14] 48.1% | viability, T/C [15] 60.5% | viability, T/C [16] 40.5% | viability, T/C [17] 30.2% | viability, T/C [18] 23.1%
< 5.00: pIC50 (second compound 30 pM) | pIC50 (second compound 94.9 pM)

COc1ccc([C@@H](O)c2cc(-c3ncnc4cc(N5CCOCC5)ccc34)c(F)cc2Cl)nn1 + COc1cc2c(cc1O)CCNC21CSC2c3c(OC(C)=O)c(C)c4c(c3C(COC1=O)N1C(O)C3Cc5cc(C)c(OC)c(O)c5C(C21)N3C)OCO4
inactive: viability, T/C [1] 94.5% | viability, T/C [2] 108% | viability, T/C [3] 93.6% | viability, T/C [4] 58.5% | viability, T/C [5] 32.7% | viability, T/C [6] 15.9% | viability, T/C [7] 91% | viability, T/C [8] 91.2% | viability, T/C [9] 84.3% | viability, T/C [10] 44.4% | viability, T/C [11] 26.5% | viability, T/C [12] 14.2% | viability, T/C [13] 49.2% | viability, T/C [14] 42.5% | viability, T/C [15] 36.6%
5.83: pIC50 (second compound 30 pM)
> 7.50: pIC50 (second compound 0.0003 µM) | pIC50 (second compound 0.000949 µM) | pIC50 (second compound 0.003 µM)
6.05: pIC50 (second compound 94.9 pM)
active: viability, T/C [16] 3.35% | viability, T/C [17] 0.22% | viability, T/C [18] 0.19% | viability, T/C [19] 0.4% | viability, T/C [20] 0.23% | viability, T/C [21] 0.14% | viability, T/C [22] 0.08% | viability, T/C [23] 0.05% | viability, T/C [24] 0.22% | viability, T/C [25] 0.28% | viability, T/C [26] 0.35% | viability, T/C [27] 0.35% | viability, T/C [28] 0.33% | viability, T/C [29] 0.3% | viability, T/C [30] 0.39%

Cc1cc(C)c(CNC(=O)c2cc(-c3ccc(CN4CCOCC4)cc3)cc3c2cnn3C2CCCC2)c(=O)[nH]1 + COc1cc2c(cc1O)CCNC21CSC2c3c(OC(C)=O)c(C)c4c(c3C(COC1=O)N1C(O)C3Cc5cc(C)c(OC)c(O)c5C(C21)N3C)OCO4
inactive: viability, T/C [1] 81.9% | viability, T/C [2] 97.4% | viability, T/C [3] 97.5% | viability, T/C [4] 102% | viability, T/C [5] 85.7% | viability, T/C [6] 61.4% | viability, T/C [7] 84.3% | viability, T/C [8] 87.3% | viability, T/C [9] 92.9% | viability, T/C [10] 88.2% | viability, T/C [11] 81.9% | viability, T/C [12] 64.3% | viability, T/C [13] 44.9% | viability, T/C [14] 40% | viability, T/C [15] 59.9% | viability, T/C [16] 39.5% | viability, T/C [17] 34.4% | viability, T/C [18] 25.5%
> 7.50: pIC50 (second compound 0.0003 µM) | pIC50 (second compound 0.000949 µM) | pIC50 (second compound 0.003 µM)
< 5.00: pIC50 (second compound 30 pM) | pIC50 (second compound 94.9 pM)
active: viability, T/C [19] 0.31% | viability, T/C [20] 0.35% | viability, T/C [21] 0.34% | viability, T/C [22] 0.33% | viability, T/C [23] 0.21% | viability, T/C [24] 0.26% | viability, T/C [25] 0.3% | viability, T/C [26] 0.32% | viability, T/C [27] 0.3% | viability, T/C [28] 0.25% | viability, T/C [29] 0.25% | viability, T/C [30] 0.26%

[2H]c1nc(C)nc([2H])c1-c1cc(NC[C@@H](C)c2cccc3c(C(=O)NC)ccnc23)ncn1 + COc1cc2c(cc1O)CCNC21CSC2c3c(OC(C)=O)c(C)c4c(c3C(COC1=O)N1C(O)C3Cc5cc(C)c(OC)c(O)c5C(C21)N3C)OCO4
> 7.50: pIC50 (second compound 0.000949 µM) | pIC50 (second compound 0.003 µM)
< 5.00: pIC50 (second compound 30 pM) | pIC50 (second compound 94.9 pM)
active: viability, T/C [19] 0.44% | viability, T/C [20] 0.45% | viability, T/C [21] 1.41% | viability, T/C [22] 0.35% | viability, T/C [23] 0.23% | viability, T/C [24] 0.31% | viability, T/C [25] 0.18% | viability, T/C [26] 0.2% | viability, T/C [27] 0.14% | viability, T/C [28] 0.12% | viability, T/C [29] 0.13% | viability, T/C [30] 0.25%
inactive: viability, T/C [1] 91.2% | viability, T/C [2] 106% | viability, T/C [3] 100% | viability, T/C [4] 101% | viability, T/C [5] 90.8% | viability, T/C [6] 92.1% | viability, T/C [7] 89.7% | viability, T/C [8] 90.1% | viability, T/C [9] 92.3% | viability, T/C [10] 91.5% | viability, T/C [11] 83.1% | viability, T/C [12] 82.5% | viability, T/C [13] 51% | viability, T/C [14] 54.6% | viability, T/C [15] 43.2% | viability, T/C [16] 40.4% | viability, T/C [17] 50.2% | viability, T/C [18] 41.5%
7.14: pIC50 (second compound 0.0003 µM)
